What was measured:
Assay in all cases: Bliss excess, mean over the matrix (fraction); higher = more synergy
[1] = system: OACM5-1 (Esophageal Adenocarcinoma)
How it was run: (§1)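 Bliss excess equals the observed combination effect minus the expected value EA + EB − EA·EB, where EA and EB are the effects of each agent alone. Combination Emax is the second-highest inhibition within the matrix. Inhibition was scaled from CellTiter-Glo 2.0 luminescence, with 0 set by vehicle wells and 1 by blank wells, after 72 hours of two-drug dosing of cells plated in 1536-well plates.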

[2] = system: HCC2998 (Colorectal Carcinoma)
How it was run: as §1

[3] = system: NCI-H2122 (Lung Adenocarcinoma)
How it was run: as §1

[4] = system: HCC1500 (Breast Carcinoma)
How it was run: as §1

[5] = system: A4-Fuk (B-Lymphoblastic Leukemia)
How it was run: as §1

[6] = system: NCI-H650 (Lung Adenocarcinoma)
How it was run: as §1

Hey (Ovarian Carcinoma) = system: Hey (Ovarian Carcinoma)
How it was run: as §1

[7] = system: ALL-SIL (T-Lymphoblastic Leukemia)
How it was run: as §1

[8] = system: NCI-H522 (Lung Adenocarcinoma)
How it was run: as §1

[9] = system: CADO-ES1 (Ewing's Sarcoma)
How it was run: as §1

[10] = system: NCI-H1993 (Lung Adenocarcinoma)
How it was run: as §1

[11] = system: NCI-H1838 (Lung Adenocarcinoma)
How it was run: as §1

[12] = system: SKN (Other Solid Carcinomas)
How it was run: as §1

[13] = system: MOLT-4 (T-Lymphoblastic Leukemia)
How it was run: as §1

[14] = system: KMRC-1 (Kidney Carcinoma)
How it was run: as §1

[15] = system: G-401 (Other Solid Carcinomas)
How it was run: as §1

[16] = system: NCI-H1355 (Lung Adenocarcinoma)
How it was run: as §1

[17] = system: ML-2 (Acute Myeloid Leukemia)
How it was run: as §1

[18] = system: Mo-T (Other Blood Carcinomas)
How it was run: as §1

[19] = system: MV-4-11 (Acute Myeloid Leukemia)
How it was run: as §1

SMILES	Bliss excess [1]	Bliss excess [2]	Bliss excess [3]	Bliss excess [4]	Bliss excess [5]	Bliss excess [6]	Bliss excess (Hey (Ovarian Carcinoma))	Bliss excess [7]	Bliss excess [8]	Bliss excess [9]	Bliss excess [10]	Bliss excess [11]	Bliss excess [12]	Bliss excess [13]	Bliss excess [14]	Bliss excess [15]	Bliss excess [16]	Bliss excess [17]	Bliss excess [18]	Bliss excess [19]
Cc1c2c(nn1C)CSCc1cc(n(C)n1)CSc1cc(c3ccccc3c1)OCCCc1c(C(=O)O)n(C)c3c-2c(Cl)ccc13 [AZD5991] + CC1(C)CCC(CN2CCN(c3ccc(C(=O)NS(=O)(=O)c4ccc(NCC5CCOCC5)c([N+](=O)[O-])c4)c(Oc4cnc5[nH]ccc5c4)c3)CC2)=C(c2ccc(Cl)cc2)C1 [Venetoclax] (first compound max 1 µM, 7x7, partner max 1 µM)	0.0228	-0.0362	0.0016	0.256	-0.03	-0.0014	-0.0236	0.0333	-0.0118	-0.0023	0.0009	0.0125	-0.0031	0.124	-0.0446	0.0446	-0.0567	0.16	-0.0211	0.0591
NC1(C(=O)N[C@@H](CCO)c2ccc(Cl)cc2)CCN(c2ncnc3[nH]ccc23)CC1 [Capivasertib] + CC(=O)c1c(C)c2cnc(Nc3ccc(N4CCNCC4)cn3)nc2n(C2CCCC2)c1=O [Palbociclib] (first compound max 10 µM, 7x7, partner max 10 µM)	-0.0299	-0.0745	0.0338	0.0017	-0.0374	-0.0413	0.0123	-0.0889	-0.0696	-0.0849	0.0642	0.0468	-0.0383	-0.0002	-0.0272	-0.009	0.0107	-0.0354	-0.0271	-0.0164
CS(=O)(=O)CCNCc1ccc(-c2ccc3ncnc(Nc4ccc(OCc5cccc(F)c5)c(Cl)c4)c3c2)o1 [Lapatinib] + C[C@@H](Oc1cc(-c2cnn(C3CCNCC3)c2)cnc1N)c1c(Cl)ccc(F)c1Cl [Crizotinib] (first compound max 10 µM, 7x7, partner max 10 µM)	-0.0691	-0.044	-0.0181	0.0412	-0.0407	-0.0521	-0.0526	0.0033	-0.0362	-0.0023	0.0268	-0.0919	-0.0289	-0.0084	-0.0725	-0.0617	-0.0141	-0.0133	-0.0658	-0.0106
CN(C)CCCOc1ccc(-c2ccc3ncc4c(c3c2)n(C2CCOCC2)c(=O)n4C)cn1 [AZD0156] + CCN(CCO)CCCOc1ccc2c(Nc3cc(CC(=O)Nc4cccc(F)c4)[nH]n3)ncnc2c1 [AZD2811] (first compound max 1 µM, 7x7, partner max 1 µM)	-0.0366	0.0314	0.0471	-0.0563	0.0911	-0.0159	0.0051	-0.0532	-0.0201	0.0131	-0.0335	-0.0122	-0.0358	0.0107	-0.0251	-0.0279	-0.0599	-0.0594	-0.0898	-0.0383
CC(=O)c1c(C)c2cnc(Nc3ccc(N4CCNCC4)cn3)nc2n(C2CCCC2)c1=O [Palbociclib] + Cc1c2c(nn1C)CSCc1cc(n(C)n1)CSc1cc(c3ccccc3c1)OCCCc1c(C(=O)O)n(C)c3c-2c(Cl)ccc13 [AZD5991] (first compound max 10 µM, 7x7, partner max 1 µM)	-0.0456	-0.0746	-0.0218	-0.0145	0.0579	-0.0583	-0.0205	-0.0576	-0.0258	-0.0356	0.0186	-0.0634	-0.0465	-0.0073	-0.0363	0.0308	-0.0147	0.0133	-0.0208	0.0127
COc1cccc(OCCCN)c1-c1cc(Nc2cnc(C#N)cn2)n[nH]1 [Prexasertib] + Cc1cc2ncnn2cc1Nc1ncc2c(n1)n(C1CCOCC1)c(=O)n2C [AZD7648] (first compound max 1 µM, 7x7, partner max 10 µM)	-0.026	-0.0053	-0.0289	0.0354	-0.0989	-0.0389	-0.0301	-0.0258	-0.0005	-0.0261	-0.0683	-0.0126	-0.0238	0.0091	-0.0152	-0.0221	-0.0405	-0.0357	0.0159	-0.0083
NC1(C(=O)N[C@@H](CCO)c2ccc(Cl)cc2)CCN(c2ncnc3[nH]ccc23)CC1 [Capivasertib] + CCN(CCO)CCCOc1ccc2c(Nc3cc(CC(=O)Nc4cccc(F)c4)[nH]n3)ncnc2c1 [AZD2811] (first compound max 10 µM, 7x7, partner max 1 µM)	-0.0245	-0.0095	-0.0827	0.0228	-0.0161	-0.0281	0.0375	-0.0631	-0.0817	-0.0618	0.0065	-0.0356	-0.0219	-0.0189	-0.0421	-0.0072	0.045	-0.0094	-0.0703	-0.0436

— the supplement of paper PMC11061612
